Measurements reported in doi:10.1101/2021.06.18.449075v2, “Understanding the mechanism of monoADP ribosylation in OsSRT1 and its linkage to DNA repair system under stress conditions” (biorxiv, 2021).
Read-outs that look alike come from different tables or passages of the source.

Columns and labels:
OsSRT1 [1] = target: T1, OsSRT1 (Oryza sativa, UniProt B8ARK7); assay: auto-ADP-ribosylation, anti-biotin western blot; assay type: biochemical
T1 construct: gene SRT1; OsSRT1 gene (483 aa) in pET30a (BamHI/EcoRI), His-tagged, E. coli BL21(DE3), HisTrap purified; tag removal not mentioned
T1 sequence (B8ARK7 1-483): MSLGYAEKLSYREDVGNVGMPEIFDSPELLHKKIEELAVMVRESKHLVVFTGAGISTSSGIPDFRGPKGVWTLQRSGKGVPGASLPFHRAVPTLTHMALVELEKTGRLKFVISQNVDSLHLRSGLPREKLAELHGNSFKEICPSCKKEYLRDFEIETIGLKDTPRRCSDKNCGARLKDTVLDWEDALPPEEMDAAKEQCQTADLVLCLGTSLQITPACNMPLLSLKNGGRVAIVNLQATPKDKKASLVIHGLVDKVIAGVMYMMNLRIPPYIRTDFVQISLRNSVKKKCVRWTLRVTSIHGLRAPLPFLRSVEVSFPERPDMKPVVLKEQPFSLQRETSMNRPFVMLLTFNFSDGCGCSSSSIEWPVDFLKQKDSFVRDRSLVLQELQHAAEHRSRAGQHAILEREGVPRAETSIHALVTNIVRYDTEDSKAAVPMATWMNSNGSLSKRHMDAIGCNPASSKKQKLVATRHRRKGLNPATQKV

OsSRT1 [2] = target: T1, OsSRT1; assay: auto-ADP-ribosylation, anti-biotin dot blot, Michaelis-Menten fit; assay type: biochemical; settings: 6 nM OsSRT1, 0-100 µM Bio-NAD+, pH 7.5, 25°C; auto-ADPr without H3; labelled compound

Compound | IC50 (OsSRT1 [1]) [µM] | further results
Nc1ncnc2c1ncn2[C@@H]1O[C@H](COP(=O)(O)OP(=O)(O)OC[C@H]2OC(O)[C@H](O)[C@@H]2O)[C@@H](O)[C@H]1O (stereo partly shown) [ADP-ribose] |  | IC50 (OsSRT1 [1]; auto-ADPr with Bio-NAD+, standard buffer 50 mM Tris pH 7.5, 150 mM NaCl, 10 mM DTT, 75 μM NAD+, 40 μM Bio-NAD+, 25°C, 1 h, product inhibition): 18 ± 4 µM
NC(=O)c1cccnc1 [nicotinamide] | 26 ± 2 | 
Bio-NAD^+ |  | Km (OsSRT1 [2]): 37.4 ± 4 µM
O=C(O)c1cccnc1 [nicotinic acid] | 32 ± 4 | 
